Data taken from patent publication US10034844B2, “Method for enhancing immunity, inhibiting allergic reaction, and/or inhibiting autoimmune reaction” (TCI CO., LTD., priority 2016, dated 2018).

Key:
[1] = test system: CD74 (Cluster of Differentiation 74); experiment: RNA microarray, CD74 expression in PBMCs (MHC-II pathway); type: cell-based, human; settings: final concentration of 5%, 24 hours, normalized to control group
Experimental: (§1) PBMCs are immunocytes present in the peripheral blood. In these preparation examples, PBMCs were isolated from the peripheral blood obtained from healthy donors.
(§2) B. Treatments Applied to PBMCs • (b1) 1 mL X-VIVO 10 medium was added into each well of a 24-well plate, and then PBMCs obtained from step A were seeded into the medium with a density of 1×10^6 to 2×10^6/well; and • (b2) PBMCs obtained from step b1 were separated into two groups for the following treatments: • Control group: the PBMCs-containing medium was directly incubated in a 37° C. constant temperature incubator with 5% CO2 (i.e., PBMCs were cultured in a medium that was free of the compound of formula (I)) for 24 hours; • Experimental group: the compound of formula (I) was added to the PBMCs-containing medium until a final concentration of 5%, and then the medium was incubated in a 37° C. constant temperature incubator with 5% CO2 for 24 hours. […]
(§3) To know whether the compound of formula (I) can inhibit the activation of the MHC-II pathway, after determining mRNA expression levels via the above Preparation example C, the expression levels of genes relating to MHC-II pathway (including CD4, CD74, CIITA, HLA-DMB, HLA-DPA1, HLA-DPB1, HLA-DQB1, HLA-DRA, and LGMN) of the control and experimental group were recorded respectively. […]

[2] = test system: HSPA2 (Heat Shock Protein Family A Member 2); experiment: RNA microarray, HSPA2 expression in PBMCs (MHC-I pathway); type: cell-based, human; settings: final concentration of 5%, 24 hours, normalized to control group
Experimental: as §1, §2
as §3, with “promote” for “inhibit”, “MHC-I” for “MHC-II”, “CTSL, HSPA1B,” for “CD4, CD74, CIITA, HLA-DMB, HLA-DPA1, HLA-DPB1, HLA-DQB1, HLA-DRA,”, “HSPA2)” for “LGMN)”

[3] = test system: CIITA (Class II Major Histocompatibility Complex Transactivator); experiment: RNA microarray, CIITA expression in PBMCs (MHC-II pathway); type: cell-based, human; settings: final concentration of 5%, 24 hours, normalized to control group
Experimental: as §1, §2, §3

[4] = test system: HLA-DMB (human leukocyte antigen-DMB); experiment: RNA microarray, HLA-DMB expression in PBMCs (MHC-II pathway); type: cell-based; settings: final concentration of 5%, 24 hours, normalized to control group
Experimental: as §1, §2, §3

[5] = test system: TNFRSF14 (TNF superfamily, member 14); experiment: RNA microarray, TNFRSF14 expression in PBMCs (genes delaying aging of immunocytes); type: cell-based, human; settings: final concentration of 5%, 24 hours, compared to control group
Experimental: as §1, §2
(§4) To know whether the compound of formula (I) can delay the aging of immunocytes, after determining mRNA expression levels via the above Preparation example C, the expression levels of genes helpful for delaying the aging of immunocytes (including FOXO3, SOD2, and TNFRSF14) of the control and experimental group were recorded respectively. […]

HLA-DRA = experiment: RNA microarray, HLA-DRA expression in PBMCs (MHC-II pathway); type: cell-based, human; settings: final concentration of 5%, 24 hours, normalized to control group
Experimental: as §1, §2, §3

[6] = test system: HSPA1B (heat shock protein family A member 1B); experiment: RNA microarray, HSPA1B expression in PBMCs (MHC-I pathway); type: cell-based, human; settings: final concentration of 5%, 24 hours, compared to control group
Experimental: as §1, §2
as §3, with “promote” for “inhibit”, “MHC-I” for “MHC-II”, “CTSL, HSPA1B,” for “CD4, CD74, CIITA, HLA-DMB, HLA-DPA1, HLA-DPB1, HLA-DQB1, HLA-DRA,”, “HSPA2)” for “LGMN)”

HLA-DPA1 = experiment: RNA microarray, HLA-DPA1 expression in PBMCs (MHC-II pathway); type: cell-based, human; settings: final concentration of 5%, 24 hours, normalized to control group
Experimental: as §1, §2, §3

FOXO3 (forkhead box O3) = experiment: RNA microarray, FOXO3 expression in PBMCs (genes delaying aging of immunocytes); type: cell-based, human; settings: final concentration of 5%, 24 hours, compared to control group
Experimental: as §1, §2, §4

CTSL (Cathepsin L) = experiment: RNA microarray, CTSL expression in PBMCs (MHC-I pathway); type: cell-based, human; settings: final concentration of 5%, 24 hours, normalized to control group
Experimental: as §1, §2
as §3, with “promote” for “inhibit”, “MHC-I” for “MHC-II”, “CTSL, HSPA1B,” for “CD4, CD74, CIITA, HLA-DMB, HLA-DPA1, HLA-DPB1, HLA-DQB1, HLA-DRA,”, “HSPA2)” for “LGMN)”

[7] = test system: ITGA4 (integrin subunit alpha 4); experiment: RNA microarray, ITGA4 expression in PBMCs (aging genes); type: cell-based, human; settings: final concentration of 5%, 24 hours, normalized to control group
Experimental: as §1, §2
(§5) To know whether the compound of formula (I) can delay the aging of immunocytes, after determining mRNA expression levels via the above Preparation example C, the expression levels of genes representing the old stage of immunocytes (including CD244, ITGA4, and KLRG1) of the control and experimental group were recorded respectively. […]

[8] = test system: IL-1B (interleukin 1 beta); experiment: RNA microarray, IL-1B expression in PBMCs (macrophage activation); type: cell-based, human; settings: final concentration of 5%, 24 hours, normalized to control group
Experimental: as §1, §2
(§6) To know whether the compound of formula (I) can promote the activation of macrophages, after determining mRNA expression levels via the above Preparation example C, the expression levels of genes relating to macrophage activation (including IL-1B and TNF-α) of the control and experimental group were recorded respectively. […]

HLA-DQB1 = experiment: RNA microarray, HLA-DQB1 expression in PBMCs (MHC-II pathway); type: cell-based, human; settings: final concentration of 5%, 24 hours, normalized to control group
Experimental: as §1, §2, §3

[9] = test system: SOD2 (Superoxide dismutase 2); experiment: RNA microarray, SOD2 expression in PBMCs (genes delaying aging of immunocytes); type: cell-based, human; settings: final concentration of 5%, 24 hours, normalized to control group
Experimental: as §1, §2, §4

[10] = test system: KLRG1 (killer cell lectin-like receptor subfamily G, member 1); experiment: RNA microarray, KLRG1 expression in PBMCs (aging genes); type: cell-based, human; settings: final concentration of 5%, 24 hours, normalized to control group
Experimental: as §1, §2, §5

LGMN (legumain) = experiment: RNA microarray, LGMN expression in PBMCs (MHC-II pathway); type: cell-based, human; settings: final concentration of 5%, 24 hours, normalized to control group
Experimental: as §1, §2, §3

HLA-DPB1 = experiment: RNA microarray, HLA-DPB1 expression in PBMCs (MHC-II pathway); type: cell-based, human; settings: final concentration of 5%, 24 hours, normalized to control group
Experimental: as §1, §2, §3

[11] = test system: CD244 (Cluster of Differentiation 244); experiment: RNA microarray, CD244 expression in PBMCs (aging genes); type: cell-based, human; settings: final concentration of 5%, 24 hours, normalized to control group
Experimental: as §1, §2, §5

[12] = test system: CD4 (Cluster of Differentiation 4); experiment: RNA microarray, CD4 expression in PBMCs (MHC-II pathway); type: cell-based, human; settings: final concentration of 5%, 24 hours, normalized to control group
Experimental: as §1, §2, §3

[13] = test system: TNF-α (tumor necrosis factor alpha); experiment: RNA microarray, TNF-α expression in PBMCs (macrophage activation); type: cell-based, human; settings: final concentration of 5%, 24 hours, compared to control group
Experimental: as §1, §2, §6

With C=C1CC[C@@H](C)C2C[C@@H](O)[C@@H](C(C)C(=O)O)CC12 (some centres unmarked) [compound of formula (I)] the “expression level of CD74” value [1] was 0.18 times the level of the control group, the “expression level of HSPA2” value [2] was 4.61 times the level of the control group and the “expression level of CIITA” value [3] was 0.40 times the level of the control group. For the same molecule, the “expression level of HLA-DMB” value [4] was 0.31 times the level of the control group, the “expression level of TNFRSF14” value [5] was “significantly increased” and the “expression level of HLA-DRA” value (HLA-DRA) was 0.36 times the level of the control group. The “expression level of HSPA1B” value [6] was “significantly increased”, the “expression level of HLA-DPA1” value (HLA-DPA1) was 0.23 times the level of the control group and the “expression level of FOXO3” value (FOXO3 (forkhead box O3)) was “significantly increased”. The “expression level of CTSL” value (CTSL (Cathepsin L)) was 3.13 times the level of the control group, the “expression level of ITGA4” value [7] was 0.24 times the level of the control group and the “expression level of IL-1B” value [8] was 16.32 times the level of the control group. For the same molecule, the “expression level of HLA-DQB1” value (HLA-DQB1) was 0.14 times the level of the control group, the “expression level of SOD2” value [9] was 6.06 times the level of the control group and the “expression level of KLRG1” value [10] was 0.25 times the level of the control group. For the same molecule, the “expression level of LGMN” value (LGMN (legumain)) was 0.32 times the level of the control group, the “expression level of HLA-DPB1” value (HLA-DPB1) was 0.23 times the level of the control group and the “expression level of CD244” value [11] was 0.14 times the level of the control group. For the same molecule, the “expression level of CD4” value [12] was 0.47 times the level of the control group and the “expression level of TNF-α” value [13] was “significantly increased”.
